This is an account of results in patent US20100184802A1, “Bicycloheteroaryl Compounds as P2X7 Modulators and Uses Thereof” (priority 2006, published 2010).

In series [1] the target is T1, P2X7 receptor (IL-1β release from THP-1 cells) (Homo sapiens, UniProt Q99572).
T1 construct: host or cells: THP-1 cells differentiated with LPS and IFN-γ
T1 sequence (Q99572 1-595): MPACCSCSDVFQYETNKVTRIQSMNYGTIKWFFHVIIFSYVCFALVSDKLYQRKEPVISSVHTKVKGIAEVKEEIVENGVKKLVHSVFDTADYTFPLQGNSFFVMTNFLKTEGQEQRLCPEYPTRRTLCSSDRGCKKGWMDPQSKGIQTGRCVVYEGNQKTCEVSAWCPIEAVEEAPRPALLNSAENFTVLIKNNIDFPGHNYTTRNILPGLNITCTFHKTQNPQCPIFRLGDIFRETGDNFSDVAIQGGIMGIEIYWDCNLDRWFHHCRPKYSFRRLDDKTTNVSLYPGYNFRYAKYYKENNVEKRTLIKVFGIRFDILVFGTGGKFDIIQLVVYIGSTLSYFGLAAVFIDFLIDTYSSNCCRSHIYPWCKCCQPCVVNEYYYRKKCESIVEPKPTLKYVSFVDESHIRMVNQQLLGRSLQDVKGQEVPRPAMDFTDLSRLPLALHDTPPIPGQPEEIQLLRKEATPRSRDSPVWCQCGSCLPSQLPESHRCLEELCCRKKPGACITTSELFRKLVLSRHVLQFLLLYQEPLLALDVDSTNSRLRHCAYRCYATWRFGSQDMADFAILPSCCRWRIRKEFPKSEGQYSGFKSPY
Nature of the series: IL-1β release assay in differentiated THP-1 cells stimulated with BzATP (Example 9). The class given is cell-based. Particulars: for inhibition at 0.3 µM: 0.3 μM concentration, BzATP 250 uM, read-out: IL-1β % Inhib. @ 0.3 or 0.1 μM; for IC50: released IL-1β as in Example 9, four parameter logistic fit. On the procedure: The cells are then pretreated for 30 minutes with the compound of interest at the appropriate concentration in RPMI media containing 100 IU/mL penicillin, 100 ug/mL streptomycin. […] 30 uL of cell supernatant is then collected and IL-1β levels determined via ELISA (R&D systems Cat. #HSLB50) according to manufacturer's recommendations using the Tecan Safire plate reader. Background adjusted IL-1β levels of drug treated and non-treated cells are used to calculate the percent inhibition.
The compounds set forth in Table 1 were tested for activity in a cellular model as described herein. […] Measurements were made and IC50 values, presented in Table 2, below, were determined by fitting the data to a four parameter logistic equation using GraphPad Prism software (GraphPad Software, Inc). The equation may be expressed by the following formula:
Y=Bottom+(Top−Bottom)/(1+10̂((Log EC50−X)*HillSlope))
Where X is the logarithm of concentration, Y is the response and Y starts at Bottom and goes to Top with a sigmoid shape.

The nature of series [2]: Half-life in human liver microsomes (HLM). The format is in vitro ADME. The conditions noted are these: human liver microsomes (HLM, HL101); human liver microsomes 0.78 mg/mL, 1 μM compound, NADPH, pH 7.4, 37° C. On the technique in general: Liver microsomes are vesicles of endoplasmic reticulum, rich in cytochrome P450 enzymes.
Protocol: Test compounds (1 μM) are incubated with 3.3 mM MgCl2 and 0.78 mg/mL HLM (HL101) in 100 mM potassium phosphate buffer (pH 7.4) at 37° C. on the 96-deep well plate. The reaction mixture is split into two groups, a non-P450 and a P450 group. NADPH is only added to the reaction mixture of the P450 group. An aliquot of samples of P450 group is collected at 0, 10, 30, and 60 min time point, where 0 min time point indicated the time when NADPH is added into the reaction mixture of P450 group. […] Collected aliquots are extracted with acetonitrile solution containing an internal standard. […] The compound concentration in supernatant is measured by LC/MS/MS system.
The half-life value is obtained by plotting the natural logarithm of the peak area ratio of compounds/internal standard versus time. The slope of the line of best fit through the points yields the rate of metabolism (k). This is converted to a half-life value using following equations:
The nature of series [3]: Pharmacokinetic evaluation following intravenous and oral administration in rats. The conditions noted are these: rat, plasma; male Sprague-Dawley rats; PO 1 to 5 mg/kg vs IV, AUCinf dose-normalized; mean % F. The format is in vivo. As to the method: Male Sprague-Dawley rats are acclimatized for at least 24 hours prior to experiment initiation. During the acclimation period, all animals receive food and water ad libitum. However, food but not water is removed from the animals' cages at least 12 hours before initiation of the experiment. During the first 3 hours of experimentation, the animals receive only water ad libitum. At least three animals each are tested for intravenous and oral dosage. For intravenous formulation, compounds were dissolved (0.25 to 1 mg/mL) in a mixture of 3% dimethyl sulfoxide, 40% PEG 400 and the rest percentage of 40% Captisol in water (w/v). The animals are weighed before dosing. The determined body weight is used to calculate the dose volume for each animal.
Dose volume (mL/kg)=1 mg/kg/formulation concentration (mg/mL)
In instances where the formulation concentrations were less than 0.5 mg/mL, the dosing volume is about 2 mL/kg.
For oral formulation, compounds of this invention are suspended (0.5 to 0.75 mg/mL) in a mixture of 5% of 10% Tween 80 in water (v/v) and 95% of 0.5% methyl cellulose in water (w/v). PO rats are typically dosed through oral gavage following the same dose volume formula as IV to achieve a dose level of 1 to 5 mg/kg. For IV dosing, blood samples are collected (using a pre-heparinized syringe) via the jugular vein catheter at 2, 5, 15, 30, 60, 120, 180, 300, 480, and 1440 minutes post dosing. For PO dosing, blood samples are collected (using a pre-heparinized syringe) via the jugular vein catheter before dosing and at 5, 15, 30, 60, 120, 180, 300, 480, and 1440 minutes post dosing. About 250 uL of blood is obtained at each time point from the animal. Equal volumes of 0.9% normal saline are replaced to prevent dehydration. The whole blood samples are maintained on ice until centrifugation. Blood samples are then centrifuged at 14,000 rpm for 10 minutes at 4° C. and the upper plasma layer transferred into a clean vial and stored at −80° C. The resulting plasma samples are then analyzed by liquid chromatography-tandem mass spectrometry. Following the measurement of plasma samples and dosing solutions, plasma concentration-time curve is plotted. Plasma exposure is calculated as the area under the concentration-time curve extrapolated to time infinite (AUCinf). The AUCinf is averaged and the oral bioavailability (% F) for individual animal is calculated as:
AUCinf(PO)/AUCinf(IV), normalized to their respective dose levels.
The % F is reported as the mean % F of all animals dosed orally with the compound of the invention at the specified level (Table 4).

As to `O=C(CC12CC3CC(CC(C3)C1)C2)Nc1cccc2c(=O)n(CC3CCNCC3)ccc12` [Compound 501], in series [1], the inhibition at 0.3 µM is more than 76% and the IC50 (usually the concentration at which inhibition is half-maximal) stood at 6.17 nM. For the same molecule, the half-life (commonly the time needed for the level to fall by half in the phase considered) at 1 μM in series [2] was 22.8 min. Further, in series [3], the bioavailability (as a rule, the share of a dose that reaches the circulation, judged against a reference dose that is usually intravenous) lay in the range of 0 to 25%.
For `O=C(CC12CC3CC(CC(C3)C1)C2)Nc1cccc2c(=O)n(C(CO)CO)ccc12` [Compound 507] the same measures were more than 76%, 0.198 nM, 34.8 min and 0 to 25%.
With `O=C(CC12CC3CC(CC(C3)C1)C2)Nc1cccc2c1CCN(C(CO)CO)C2=O` [Compound 508], in series [1], the inhibition at 0.3 µM was more than 76% and the IC50 was 0.779 nM. Moreover, the half-life at 1 μM in series [2] is 49.8 min. In series [3], the bioavailability was in the range of 0 to 25%.
Regarding `O=C(CC12CC3CC(CC(C3)C1)C2)Nc1cccc2c(=O)n(CCO)ccc12` [Compound 511], in series [1], the inhibition at 0.3 µM is more than 76% and the IC50 is 1.34 nM. For the same molecule, the half-life at 1 μM in series [2] is 27 min.
For `O=C(CC12CC3CC(CC(C3)C1)C2)Nc1cccc2c1CCN(CC1CCNCC1)C2=O` [Compound 512] the same measures were more than 76%, 7.62 nM and 44.4 min.
For `O=C(CC12CC3CC(CC(C3)C1)C2)Nc1cccc2c(=O)n(C(CO)Cc3c[nH]cn3)ccc12` (stereo not drawn) [Compound 515] the same measures were more than 76%, 1.3 nM and 91.2 min.
For `CC(CO)n1ccc2c(NC(=O)CC34CC5CC(CC(C5)C3)C4)cccc2c1=O` (stereo not drawn) [Compound 517, 2-Adamantan-1-yl-N-[2-(2-hydroxy-1-methyl-ethyl)-1-oxo-1,2-dihydro-isoquinolin-5-yl]-acetamide] the same measures were more than 76%, 0.33 nM and 26.4 min.
On to `CC12CC3CC(C)(C1)CC(CC(=O)Nc1cccc4c(=O)n(CC5CCNCC5)ccc14)(C3)C2` [Compound 518, 2-(3,5-Dimethyl-adamantan-1-yl)-N-(1-oxo-2-piperidin-4-ylmethyl-1,2-dihydro-isoquinolin-5-yl)-acetamide], for which, in series [1], the inhibition at 0.3 µM is more than 76% and the IC50 was 60.1 nM. In series [2], this molecule showed a half-life at 1 μM of 324 min. Besides, in series [3], the bioavailability lay within 0 to 25%.
For `CC12CC3CC(C)(C1)CC(CC(=O)Nc1cccc4c(=O)n(C(CO)CO)ccc14)(C3)C2` [Compound 519], in series [1], the inhibition at 0.3 µM was more than 76% and the IC50 came out at 0.11 nM. The molecule also had a half-life at 1 μM in series [2] of 42.6 min.
As to `O=C(CC1(O)CCCCCC1)Nc1cccc2c(=O)n(CCO)ccc12` [Compound 520], in series [1], the inhibition at 0.3 µM was in the range of 51 to 75% and the IC50 is 165 nM. Moreover, the half-life at 1 μM in series [2] is 72.6 min. For the same molecule, the bioavailability in series [3] lay within 26 to 50%.
With `C[C@H](CO)n1ccc2c(NC(=O)CC34CC5CC(CC(C5)C3)C4)cccc2c1=O` [Compound 522], in series [1], the inhibition at 0.3 µM was more than 76% and the IC50 was 1.81 nM. Further, the half-life at 1 μM in series [2] is 28.8 min.
Take `C[C@H](CO)N1CCc2c(NC(=O)CC34CC5CC(CC(C5)C3)C4)cccc2C1=O` [Compound 526]: in series [1], the inhibition at 0.3 µM is more than 76% and the IC50 was determined as 1 nM. In addition, the half-life at 1 μM in series [2] is 37.8 min. Also, in series [3], the bioavailability is 0 to 25%.
Regarding `CC(C)[C@H](C(N)=O)n1ccc2c(NC(=O)CC34CC5CC(C)(CC(C)(C5)C3)C4)cccc2c1=O` [Compound 529], in series [1], the inhibition at 0.3 µM was 26 to 50% and the IC50 was 4.65 nM. The half-life at 1 μM in series [2] is 39 min. For the same molecule, the bioavailability in series [3] is 0 to 25%.
For `CC(C(N)=O)n1ccc2c(NC(=O)CC34CC5CC(CC(C5)C3)C4)cccc2c1=O` (stereo not drawn) [Compound 530] the same measures were 26 to 50%, 4.37 nM, 34.8 min and 0 to 25%.
On to `O=C(CC1CCCCCC1)Nc1cccc2c(=O)n(CCO)ccc12` [Compound 544], for which, in series [1], the inhibition at 0.3 µM was more than 76% and the IC50 is 27.8 nM. Moreover, the half-life at 1 μM in series [2] was 20.4 min. In series [3], this molecule came in with a bioavailability of 0 to 25%.
For `C[C@H](C(N)=O)n1ccc2c(NC(=O)CC3(O)CCCCCC3)cccc2c1=O` [Compound 555] the same measures were more than 76%, 41.3 nM, 45.6 min and 26 to 50%.
For `C[C@H](C(N)=O)n1ccc2c(NC(=O)CC3CCCCCC3)cccc2c1=O` [Compound 558] the same measures were more than 76%, 23.8 nM, 61.2 min and 0 to 25%.
For `C[C@H](C(N)=O)n1ccc2c(NC(=O)CC34CC5CC(CC(C5)C3)C4)cccc2c1=O` [Compound 559] the same measures were more than 76%, 0.365 nM, 16.2 min and 0 to 25%.
Consider `C[C@@H](C(N)=O)n1ccc2c(NC(=O)CC34CC5CC(CC(C5)C3)C4)cccc2c1=O` [Compound 572, (S)-2-[5-(2-Adamantan-1-yl-acetylamino)-1-oxo-1H-isoquinolin-2-yl]-propionamide], for which the IC50 in series [1] was found to be 1.21 nM. Further, the half-life at 1 μM in series [2] was 40.8 min. Moreover, the bioavailability in series [3] fell in the range of 26 to 50%.
Consider `NC(=O)[C@@H](CO)n1ccc2c(NC(=O)CC34CC5CC(CC(C5)C3)C4)cccc2c1=O` [Compound 599, (R)-2-[5-(2-Adamantan-1-yl-acetylamino)-1-oxo-1H-isoquinolin-2-yl]-3-hydroxy-propionamide], for which, in series [1], the inhibition at 0.3 µM is more than 76% and the IC50 was 1.09 nM. Also, in series [2], the half-life at 1 μM is 42 min. For the same molecule, in series [3], the bioavailability lay in the range of 0 to 25%.
As for `CC(=O)NCCn1ccc2c(NC(=O)CC3CCCCCC3)cccc2c1=O` [Compound 611, N-[2-(2-Acetylamino-ethyl)-1-oxo-1,2-dihydro-isoquinolin-5-yl]-2-cycloheptyl-acetamide], the inhibition at 0.3 µM in series [1] lay within 51 to 75%.
Take `CC(C)(CO)n1ccc2c(NC(=O)CC34CC5CC(CC(C5)C3)C4)cccc2c1=O` [Compound 613, 2-Adamantan-1-yl-N-[2-(2-hydroxy-1,1-dimethyl-ethyl)-1-oxo-1,2-dihydro-isoquinolin-5-yl]acetamide]: in series [1], the inhibition at 0.3 µM was more than 76% and the IC50 turned out to be 3.78 nM.
Turning to `CC(C)(CO)n1ccc2c(NC(=O)CC3CCCCCC3)cccc2c1=O` [Compound 614], in series [1], the inhibition at 0.3 µM was more than 76% and the IC50 came to 91.4 nM.
